Data published in EPA's ToxValDB 9.5 (doi:10.2903/j.efsa.2011.1969).
≈ marks a conversion by molar mass, not a printed value.

How the values were obtained:
[1] = system: Typhlodromus pyri; assay: LR50; higher = less toxic; conditions: not reported; mortality
[2] = system: Aphidius rhopalosiphi; assay: LR50; higher = less toxic; conditions: not reported; mortality
[3] = system: Oncorhynchus mykiss
[4] = system: Anas platyrhynchos; conditions: short-term; oral; feed; mortality
[5] = system: Apis mellifera; conditions: acute; duration: 48 hours; oral; unspecified; mortality
[6] = system: Bibionidae; conditions: chronic/long-term; duration: 27 days
[7] = system: Colinus virginianus; conditions: acute; oral; mortality
[8] = system: Tagia sp.; conditions: acute; duration: 14 days; mortality
[9] = system: Coturnix japonica; conditions: reproduction developmental
[10] = system: Folsomia candida; conditions: chronic/long-term; duration: 28 days
[11] = system: Rattus norvegicus
[12] = system: Daphnia magna; conditions: chronic/long-term; duration: 21 days; reproduction

CCNc1nc(Cl)nc(NC(C)(C)C)n1 [Terbutylazine] showed an LR50 [1] of over 750 g/ha, an LR50 [2] of over 750 g/ha and an LC50 ([3]; acute, duration: 96 hours, mortality) of 2.2 µg/mL (≈ 9.58 µM). For the same molecule, the NOEC ([3]; chronic/long-term, duration: 90 days, time to swim up) was 0.09 mg/L, the LC50 [4] was over 395 mg/kg-day and the LD50 [5] was over 22.6 µg/piece. The NOEC [6] was 0.5 mg/L, the LD50 [7] was 1240 mg/kg-day and the LC50 [8] was over 283 mg/kg. It also gave an NOEL [9] of 13.8 mg/kg-day, an NOEC [10] of 42.2 mg/kg and an LD50 ([11]; acute, oral, mortality) of under 1590 mg/kg. The NOAEL ([11]; chronic) was 3.3 mg/kg-day and the NOEC [12] was 0.019 mg/L.
